We go through 2 compounds from US10647677B2, “Analogues of hydroxychloroquine (HCQ) without retinal toxicity” (Inoviem Scientific, priority 2015, dated 2020).

One data set has as its target T1, myeloperoxidase (MPO) (Homo sapiens, UniProt P05164).
T1 construct: purchased
T1 sequence (P05164 49-745): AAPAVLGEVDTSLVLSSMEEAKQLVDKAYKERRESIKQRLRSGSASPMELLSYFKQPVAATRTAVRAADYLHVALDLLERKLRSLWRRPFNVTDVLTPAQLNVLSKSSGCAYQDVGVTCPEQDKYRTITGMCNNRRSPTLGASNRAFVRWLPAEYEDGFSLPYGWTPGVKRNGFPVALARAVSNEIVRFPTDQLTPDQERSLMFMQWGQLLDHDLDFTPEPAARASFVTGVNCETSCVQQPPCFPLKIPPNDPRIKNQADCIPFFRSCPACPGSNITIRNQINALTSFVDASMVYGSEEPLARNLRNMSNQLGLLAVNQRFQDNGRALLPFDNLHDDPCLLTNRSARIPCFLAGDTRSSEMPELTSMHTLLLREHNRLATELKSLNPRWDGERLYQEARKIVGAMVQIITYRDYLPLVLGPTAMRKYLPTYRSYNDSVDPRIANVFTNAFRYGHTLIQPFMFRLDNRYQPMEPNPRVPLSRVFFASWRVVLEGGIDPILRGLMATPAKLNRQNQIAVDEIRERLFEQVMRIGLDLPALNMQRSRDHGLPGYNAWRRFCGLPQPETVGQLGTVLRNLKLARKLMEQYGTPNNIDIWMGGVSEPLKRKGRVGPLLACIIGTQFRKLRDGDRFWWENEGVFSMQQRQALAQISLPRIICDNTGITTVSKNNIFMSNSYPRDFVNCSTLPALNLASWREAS
Briefly: Surface plasmon resonance (Biacore 3000) affinity on MPO. Format: binding. The note with it: SPR at 25° C. The procedure:
Using the surface plasmon resonance technology (Biacore 3000), the interaction constants between HCQ analogues (HCQa) and myeloperoxidase (MPO) targets and αB-crystalline (αB-C) were measured at 25° C. according to 12 different series of experiments. First, HCQ analogues at five different concentrations (10^−6 to 10^−8 M) were injected at a rate of 10^−6 L/min for 250 s on the MPO and αB-C targets as well as on the ERK1 and ERK2 controls, followed by a dissociation phase of 150 s.
The kinetic parameters were measured using the BIAevaluation 4.1 software. The set of resonance unit values obtained with the controls were subtracted from those obtained with MPO and αB-C to compensate for non-specific bonds.
The differences in Kd values for the myeloperoxidase (MPO) and αB-crystalline (αB-C) enzymes in Tables 1 and 2 are due to the variability of commercial batches. Nevertheless, the difference between the Kd of the compounds HCQ and CB137 remains identical according to these two tests.
Analysis of the compounds in the form of sulphate salts according to the method described above: […]
For orientation: Surface plasmon resonance follows binding to a sensor surface in real time, without labels.

Another data set concerns retina of mice. Briefly: Determination of retinopathy: histological analysis of the retina. It counts as in vivo. As to conditions: HCQ 10 mg/kg or CB137 5, 10 and 15 mg/kg, 5 times weekly for 62 days (FIGS. 3 and 4). The protocol: Histology: 7-week-old mice are injected with 10 mg/kg HCQ or 5, 10 and 15 mg/kg of the CB137 analog 5 times weekly for a period of 62 days. After assigning them a number, the mice are randomized according to their weight and treatment. The mice are divided in groups of 5 in cages, one mouse being treated with the carrier, one with HCQ 10 mg/kg, one with CB137 5 mg/kg, one with CB137 10 mg/kg and one with CB137 15 mg/Kg. The mice are housed in an environment maintained at a temperature of 22° C., 35-55% humidity and with 12-hour cycles of light/darkness.
At the end of the experiment, the mice are euthanized by cervical dislocation. The eyeballs are isolated and stored in a solution containing 4% paraformaldehyde, 5% glutaraldehyde and 0.1 M sodium cacodylate overnight at 4° C. The samples are washed, dehydrated and embedded in paraffin. The 4-μm retinal sections are stained with 1% toluidine blue followed by 1% methylene blue. The retinal toxicity of the samples is then determined by analysis of the sections under microscope.

For data set [1], the system named is C57Bl/6 mice, pulmonary vasculitis induced by immune complexes. Briefly: Pulmonary vasculitis induced by immune complexes: neutrophils in bronchoalveolar lavages (flow cytometry). It counts as in vivo. As to conditions: HCQ 10 mg/kg, CB137 10, 30 and 100 mg/kg, 4 hours after instillation, compared to control + (FIG. 5). The protocol: Female C57Bl/6 strain mice from the Jackson Laboratory, 8-10 weeks old and weighing about 20 g, are used in all experiments. The mice are maintained at a temperature of 23° C.±1° C. with 12-hour light/dark cycle. Mice have access to water and food ad libitum and are housed at least one week before the beginning of any experiments.
A retro-orbital blood sampling was performed using capillaries containing heparin on mice anesthetized with isoflurane the day before the manipulation. The next day, the mice were anesthetized with a mixture of ketamine and xylasin (90 mg/kg and 125 mg/kg, respectively). The immune IgG complex is induced in the lungs by intratracheal instillation of 0.5 mg of anti-BSA rabbit antibody (MP Biomedicals, Strasbourg, France) and by the administration of 0.5 mg per mouse of BSA antigen in the caudal vein (Warner et al., 2001 and Warren et al., 1989). The specified treatment (PF-1355, CB137 or solvent alone) is administered enterally. The animals are euthanized 4 hours after intratracheal instillation.
The animals are euthanized 4 hours after the intratracheal instillation by a lethal injection of pentobarbital. A submandibular blood sample is taken. […] The total number of cells, excluding any residual red cells and dead cells stained with trypan blue, is determined under the light microscope on a Malassez cell. […]
On the technique in general: In flow cytometry, cells or beads pass a laser one at a time.

The mark [2] stands for this setting: Table 2, compounds in the form of sulphate salts.

By Kd is commonly meant the constant that tells how readily two partners part at equilibrium. As to `CCN(CCO)CCCC(C)Nc1c(Cl)cnc2cc(Cl)ccc12` (centres unmarked) [CB137], the values for the Kd at myeloperoxidase (MPO) (Table 1) and at myeloperoxidase (MPO) (setting [2]) were 6.59 nM and 60 nM, respectively. Besides, the “retinal lesions (histology)” value with retina of mice was “does not induce more lesions than in the control mice”. In addition, in data set [1], the “amount of neutrophils in bronchoalveolar lavages / lungs” value is “decreases the amount of neutrophils”.

Regarding `CCN(CCO)CCCC(C)Nc1ccnc2cc(Cl)ccc12` (centres unmarked) [Commercial HCQ, hydroxychloroquine], the results for the equilibrium dissociation constant (Kd) on myeloperoxidase (MPO) (Table 1) and at myeloperoxidase (MPO) (setting [2]) were 710 nM and 4000 nM, respectively. The “retinal lesions (histology)” value in the data set on retina of mice is “induces retinal lesions”. Moreover, in data set [1], the “amount of neutrophils in bronchoalveolar lavages / lungs” value is reported as “slightly increase the amount of neutrophils”.
